Measurements from PubChem BioAssay AID2060359 (Molecular Pharmacology Branch, DTP, NCI, 2025).
Several values for one entry are separate records, joined by “and”; a condition that tells them apart may be missing. Equal entries are not always repeated.

Tested on: 276233-004-R-J1-PDC spheroids with HUVEC/MSC, viability
Test: Anticancer human tumor 276233-004-R-J1-PDC patient-derived colon adenocarcinoma cell line growth inhibition [TAK]
Settings: for viability, T/C: stronger effect = lower value
Description: Combinatorial screen of targeted agents with TAK-243 and ipatasertib in multi-cell type tumor spheroids
A high-throughput screen of multi-cell type tumor spheroids was designed to identify active combinations of targeted small molecules and TAK-243 or ipatasertib. Complex spheroids include a stromal component modeled by human endothelial cells (HUVEC) and fibroblasts modeled by human mesenchymal stem cells (MSCs). The concentration ranges selected for each drug and investigational agent were based upon clinically achievable concentrations if the clinical Cmax of the agent was known.
Compounds. The drugs and investigational agents: TAK-243 (785004), ipatasertib (767898), everolimus (733504), selumetinib (741078), bortezomib (756655), trametinib (758246), ixazomib (758254), vemurafenib (761431), dabrafenib (764134), sapanisertib (764658), alpelisib (765974), and copanlisib (816437), were obtained from the National Cancer Institute (NCI) Developmental Therapeutics Program Chemical Repository. The FDA-approved anticancer drug set is available from the NCI Developmental Therapeutics Program. […] The stock solutions were prepared in dimethyl sulfoxide (DMSO, Sigma-Aldrich, St. Louis, MO, cat. D2650) at 800-fold the tested concentration and stored at -70 degrees C prior to their use. All drugs and investigational agents were tested over a range starting from a high concentration at or near the clinical Cmax and decreasing in half-log increments. If the clinical Cmax for an agent had not been determined, the highest concentration tested was 10 microM.
NCI60 Cell Culture. NCI60 cell lines were obtained from the NCI Developmental Therapeutics Program Tumor Repository. For each lot of cells, the Repository performed Applied Biosystems AmpFLSTR Identifiler testing with PCR amplification to confirm consistency with the published Identifier STR profile for each cell line. Cells were kept in continuous culture for no more than 20 passages. The optimal seeding densities for each of the cell lines at each time point assessed were determined prior to performing the concentration response studies. Briefly, the NCI60 human tumor lines were grown as monolayers in RPMI 1640 medium supplemented with 10% FBS and 2 mmol/L L-glutamine.
An additional 2 lines were from the NCI60 cell line panel including melanomas, MALME-3M and SK-MEL-2. Pooled donor human umbilical vein endothelial cells (HUVEC, Lonza, cat. CC-2519) and human mesenchymal stem cells (hMSC, Lonza, cat. PT-2501) were purchased from Lonza (Walkersville, MD).
PDMR cell lines were grown in complete medium (DC medium): Dulbecco's modified Eagle's medium (DMEM)/F12 supplemented with 5% fetal bovine serum (FBS), 2 mM L-glutamine, 100 U/mL penicillin and 100 µg/ml streptomycin, 0.4 µg/ml hydrocortisone, 10 ng/ml epidermal growth factor (EGF) recombinant human protein, 24 µg/mL adenine, and 0.1 mg/mL primocin. During culture from frozen stock vials, PDMR cells were cultured in the same medium containing 10 µM Y-27632 (see Table 3). The PDCs were cultured in complete DMEM/F12 media without 10 microM Y-27632 dihydrochloride for at least two passages prior to the screen. The pooled donor HUVEC and hMSC were cultured in endothelial cell growth medium 2 (PromoCell, Heidelberg, Germany, cat. C-22011) and mesenchymal stem cell growth medium 2 (PromoCell, cat. C-28009), respectively. For all experiments, HUVEC and hMSC were used at passages </=5.
For the pre-screen, cell seeding densities were determined from a titration spanning the range from 5,000 to 313 cells per well. The mct-spheroids including 60% malignant cells, 25% HUVEC and 15% MSC dispensed as a mixture into U-bottom Ultra-Low Attachment 384-well plates (Corning, NY)
High-throughput Drug Combination Screening.
Prior to their inoculation into 384-well plates, malignant cells, HUVEC, and hMSC were removed from T flasks using TrypLE express (Thermo Fisher Scientific, cat. 12605036) and harvested by centrifugation for 5 min at 233 x g. […]

[1] = curve of first compound, second compound 0.3 µM
[2] = curve of first compound, second compound 0.949 µM
[3] = curve of first compound, second compound 3 µM
[4] = curve of first compound, second compound 9.49 µM
[5] = curve of first compound, second compound 30 µM
[6] = second compound 0.3 µM, first compound 0.000316 µM
[7] = second compound 0.3 µM, first compound 0.001 µM
[8] = second compound 0.3 µM, first compound 0.00316 µM
[9] = second compound 0.3 µM, first compound 0.01 µM
[10] = second compound 0.3 µM, first compound 0.0316 µM
[11] = second compound 0.3 µM, first compound 0.1 µM
[12] = second compound 0.949 µM, first compound 0.000316 µM
[13] = second compound 0.949 µM, first compound 0.001 µM
[14] = second compound 0.949 µM, first compound 0.00316 µM
[15] = second compound 0.949 µM, first compound 0.01 µM
[16] = second compound 0.949 µM, first compound 0.0316 µM
[17] = second compound 0.949 µM, first compound 0.1 µM
[18] = second compound 3 µM, first compound 0.000316 µM
[19] = second compound 3 µM, first compound 0.001 µM
[20] = second compound 3 µM, first compound 0.00316 µM
[21] = second compound 3 µM, first compound 0.01 µM
[22] = second compound 3 µM, first compound 0.0316 µM
[23] = second compound 3 µM, first compound 0.1 µM
[24] = second compound 9.49 µM, first compound 0.000316 µM
[25] = second compound 9.49 µM, first compound 0.001 µM
[26] = second compound 9.49 µM, first compound 0.00316 µM
[27] = second compound 9.49 µM, first compound 0.01 µM
[28] = second compound 9.49 µM, first compound 0.0316 µM
[29] = second compound 9.49 µM, first compound 0.1 µM
[30] = second compound 30 µM, first compound 0.000316 µM
[31] = second compound 30 µM, first compound 0.001 µM
[32] = second compound 30 µM, first compound 0.00316 µM
[33] = second compound 30 µM, first compound 0.01 µM
[34] = second compound 30 µM, first compound 0.0316 µM
[35] = second compound 30 µM, first compound 0.1 µM
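Also: spheroids exposed to drugs for seven days before the viability read.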

Compound | IC50 [1] [nM] | IC50 [2] [nM] | IC50 [3] [nM] | IC50 [4] [nM] | IC50 [5] [nM] | viability, T/C [6] [%] | viability, T/C [7] [%] | viability, T/C [8] [%] | viability, T/C [9] [%] | viability, T/C [12] [%] | viability, T/C [13] [%] | viability, T/C [14] [%] | viability, T/C [15] [%] | viability, T/C [18] [%] | viability, T/C [19] [%] | viability, T/C [20] [%] | viability, T/C [21] [%] | viability, T/C [24] [%] | viability, T/C [25] [%] | viability, T/C [26] [%] | further results
COC1CC2CCC(C)C(O)(O2)C(=O)C(=O)N2CCCCC2C(=O)OC(C(C)CC2CCC(OCCO)C(OC)C2)CC(=O)C(C)C=C(C)C(O)C(OC)C(=O)C(C)CC(C)C=CC=CC=C1C (centres undefined) + CC(C)NCC(C(=O)N1CCN(c2ncnc3c2C(C)CC3O)CC1)c1ccc(Cl)cc1 | > 100 | > 100 | > 100 | > 100 | > 100 | 126 | 81.9 | 75.9 | 79.3 | 74.3 | 93.3 | 81.9 | 70.5 | 72.3 | 65.5 | 57.4 | 68.2 | 55.9 | 57.3 | 49.1 | viability, T/C [10]: 67.5%; viability, T/C [11]: 71.3%; viability, T/C [16]: 68.3%; viability, T/C [17]: 58.4%; viability, T/C [22]: 54.9%; viability, T/C [23]: 57.9%; viability, T/C [27]: 53.6%; viability, T/C [28]: 51.4%; viability, T/C [29]: 54.1%; viability, T/C [30]: 53.8%; viability, T/C [31]: 61%; viability, T/C [32]: 48.2%; viability, T/C [33]: 54.2%; viability, T/C [34]: 59%; viability, T/C [35]: 51.7%
CCCS(=O)(=O)Nc1ccc(F)c(C(=O)c2c[nH]c3ncc(-c4ccc(Cl)cc4)cc23)c1F |  |  |  |  |  |  |  |  |  |  |  |  |  |  |  |  |  |  |  |  | viability, T/C (compound 0.316 µM): 81.8% and 103%; viability, T/C (compound 1 µM): 84.5% and 105%; viability, T/C (compound 3.16 µM): 114% and 104%; viability, T/C (compound 10 µM): 103% and 121%; viability, T/C (compound 31.6 µM): 103% and 89%; viability, T/C (compound 100 µM): 99% and 98.9%; IC50 (curve of compound): > 100000 nM
CC(C)CC(NC(=O)CNC(=O)c1cc(Cl)ccc1Cl)B1OC(=O)CC(CC(=O)O)(C(=O)O)O1 (centres undefined) + CC(C)NCC(C(=O)N1CCN(c2ncnc3c2C(C)CC3O)CC1)c1ccc(Cl)cc1 | 53.9 | 52.3 | 42.1 | 31.7 | 17.5 | 112 | 103 | 102 | 106 | 112 | 95.7 | 101 | 91.3 | 90.4 | 89.6 | 84.3 | 79.4 | 74.6 | 84.8 | 65.1 | viability, T/C [10]: 81.2%; viability, T/C [11]: 14.1%; viability, T/C [16]: 82.1%; viability, T/C [17]: 12%; viability, T/C [22]: 64.4%; viability, T/C [23]: 10.9%; viability, T/C [27]: 71.7%; viability, T/C [28]: 49.2%; viability, T/C [29]: 13.5%; viability, T/C [30]: 68.2%; viability, T/C [31]: 84.8%; viability, T/C [32]: 60.5%; viability, T/C [33]: 63.7%; viability, T/C [34]: 38.3%; viability, T/C [35]: 17.2%
CC(C)n1nc(-c2ccc3oc(N)nc3c2)c2c(N)ncnc21 + CC(C)NCC(C(=O)N1CCN(c2ncnc3c2C(C)CC3O)CC1)c1ccc(Cl)cc1 | > 100 | > 100 | > 100 | > 100 | > 100 | 112 | 98.7 | 89.5 | 90.6 | 104 | 84.9 | 83.9 | 68.1 | 84.7 | 81.8 | 72.4 | 63.4 | 74.8 | 77.1 | 74.6 | viability, T/C [10]: 78.2%; viability, T/C [11]: 60.8%; viability, T/C [16]: 65.3%; viability, T/C [17]: 57.2%; viability, T/C [22]: 69.5%; viability, T/C [23]: 58.9%; viability, T/C [27]: 70.1%; viability, T/C [28]: 66.5%; viability, T/C [29]: 60.1%; viability, T/C [30]: 61.4%; viability, T/C [31]: 64.7%; viability, T/C [32]: 59%; viability, T/C [33]: 64.5%; viability, T/C [34]: 78.5%; viability, T/C [35]: 59.7%
CC(C)CC(NC(=O)CNC(=O)c1cc(Cl)ccc1Cl)B1OC(=O)CC(CC(=O)O)(C(=O)O)O1 (centres undefined) |  |  |  |  |  |  |  |  |  |  |  |  |  |  |  |  |  |  |  |  | viability, T/C (compound 0.000316 µM): 99.7% and 101%; viability, T/C (compound 0.001 µM): 110% and 108%; viability, T/C (compound 0.00316 µM): 102% and 83.4%; viability, T/C (compound 0.01 µM): 103% and 92.3%; viability, T/C (compound 0.0316 µM): 91.4% and 105%; viability, T/C (compound 0.1 µM): 19.5% and 23.7%; IC50 (curve of compound): 61.4 nM and 66.5 nM
CC(C)CC(NC(=O)C(Cc1ccccc1)NC(=O)c1cnccn1)B(O)O (centres undefined) + CC(C)NCC(C(=O)N1CCN(c2ncnc3c2C(C)CC3O)CC1)c1ccc(Cl)cc1 | 6.01 | 5.35 | 3.83 | 4.36 | 1.38 | 109 | 109 | 104 | 6.95 | 147 | 96.8 | 82.9 | 13 | 81.7 | 80.3 | 59.1 | 4.72 | 73.4 | 66 | 67.7 | viability, T/C (second compound 0.3 µM, first compound 31.6 pM): 103%; viability, T/C (second compound 0.3 µM, first compound 0.0001 µM): 100%; viability, T/C (second compound 0.949 µM, first compound 31.6 pM): 105%; viability, T/C (second compound 0.949 µM, first compound 0.0001 µM): 106%; viability, T/C (second compound 3 µM, first compound 31.6 pM): 73.4%; viability, T/C (second compound 3 µM, first compound 0.0001 µM): 79.4%; viability, T/C (second compound 9.49 µM, first compound 31.6 pM): 61%; viability, T/C (second compound 9.49 µM, first compound 0.0001 µM): 80.3%; viability, T/C [27]: 4.19%; viability, T/C (second compound 30 µM, first compound 31.6 pM): 56%; viability, T/C (second compound 30 µM, first compound 0.0001 µM): 53.2%; viability, T/C [30]: 55.3%; viability, T/C [31]: 61.4%; viability, T/C [32]: 33.3%; viability, T/C [33]: 20.5%
